Experiment [1] has as its target biotinylated human Gal-3 (hGal-3) (Homo sapiens, UniProt P17931). Briefly: Competitive binding assay: biotinylated hGal-3 binding to microplate-adsorbed asialofetuin (ASF), spectrophotometric. The following applies: Gal-3 inhibition, read-out: IC50. A digest of the protocol: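 Serially diluted compounds competed with asialofetuin on the plate for biotinylated human Gal-3 during a 3 h incubation at 4° C. Streptavidin-peroxidase with ABTS gave the spectrophotometric signal. IC50 values were averaged over repeat runs.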

Another experiment addresses human Gal-1 (hGal-1) (Homo sapiens, UniProt P09382). Description: Competitive binding assay: biotinylated hGal-1 binding to microplate-adsorbed asialofetuin (ASF), spectrophotometric. As to conditions: hGal-1 binding to asialofetuin; Table 15; R and S epimers of selected Examples also listed; read-out: IC50 (Galectin-1 inhibition). The procedure, abridged:
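Spectrophotometric competition readout with ABTS after streptavidin-peroxidase (80 ng/mL, 1 h, 4 °C) detection of bound biotinylated hGal-1.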

Read-outs that look alike come from different tables or passages of the source.

This passage reports IC50 results from US12410208B2, “(2-acetamidyl)thio-beta-D-galactopyranoside derivatives” (Idorsia Pharmaceuticals Ltd, priority 2020, dated 2025).

Chain of human Gal-1 (hGal-1) (P09382 whole entry): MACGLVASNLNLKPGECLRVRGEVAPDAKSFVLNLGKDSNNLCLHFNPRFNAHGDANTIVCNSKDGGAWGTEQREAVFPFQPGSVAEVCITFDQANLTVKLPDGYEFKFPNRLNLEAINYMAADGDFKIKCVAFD
Chain of biotinylated human Gal-3 (hGal-3) (P17931 whole entry): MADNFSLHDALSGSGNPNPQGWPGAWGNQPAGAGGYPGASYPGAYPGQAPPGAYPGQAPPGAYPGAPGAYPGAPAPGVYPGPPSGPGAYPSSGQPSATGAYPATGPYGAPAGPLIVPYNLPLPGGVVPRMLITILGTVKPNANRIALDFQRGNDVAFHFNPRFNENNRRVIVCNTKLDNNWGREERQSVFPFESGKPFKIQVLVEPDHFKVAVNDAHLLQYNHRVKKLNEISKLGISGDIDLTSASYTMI

What is called IC50 is the concentration at which inhibition is half-maximal. `O=C(C(S[C@@H]1O[C@H](CO)[C@H](O)[C@H](n2cc(-c3cc(F)c(F)c(F)c3)nn2)[C@H]1O)C1(O)CCCCC1)N1CCCCC1` (stereo partly drawn) [Example 2.39.208., 2-(((2S,3R,4S,5R,6R)-3,5-Dihydroxy-6-(hydroxymethyl)-4-(4-(3,4,5-trifluorophenyl)-1H-1,2,3-triazol-1-yl)tetrahydro-2H-pyran-2-yl)thio)-2-(1-hydroxycyclohexyl)-1-(piperidin-1-yl)ethan-1-one]: the half-inhibitory concentration (IC50) in experiment [1] (Table 5) came out at 0.02 µM; at human Gal-1 (hGal-1), 0.07 µM.

For the compound `CN(CC(F)(F)F)C(=O)[C@H](S[C@@H]1O[C@H](CO)[C@H](O)[C@H](n2cc(-c3cc(F)c(F)c(F)c3)nn2)[C@H]1O)C1(O)CCCCC1` [Example 2.39.219R., (R)-2-(((2S,3R,4S,5R,6R)-3,5-Dihydroxy-6-(hydroxymethyl)-4-(4-(3,4,5-trifluorophenyl)-1H-1,2,3-triazol-1-yl)tetrahydro-2H-pyran-2-yl)thio)-2-(1-hydroxycyclohexyl)-N-methyl-N-(2,2,2-trifluoroethyl)acetamide], the IC50 in experiment [1] (Table 5) stood at 0.27 µM; at human Gal-1 (hGal-1), 0.55 µM.

Turning to `CN(CC(F)(F)F)C(=O)[C@@H](S[C@@H]1O[C@H](CO)[C@H](O)[C@H](n2cc(-c3cc(F)c(F)c(F)c3)nn2)[C@H]1O)C1(O)CCCCC1` [Example 2.39.219S., (S)-2-(((2S,3R,4S,5R,6R)-3,5-Dihydroxy-6-(hydroxymethyl)-4-(4-(3,4,5-trifluorophenyl)-1H-1,2,3-triazol-1-yl)tetrahydro-2H-pyran-2-yl)thio)-2-(1-hydroxycyclohexyl)-N-methyl-N-(2,2,2-trifluoroethyl)acetamide], the IC50 in experiment [1] (Table 5) is 0.06 µM; on human Gal-1 (hGal-1), 0.1 µM.

On to `CN(CC(C)(C)F)C(=O)C(S[C@@H]1O[C@H](CO)[C@H](O)[C@H](n2cc(-c3cc(F)c(F)c(F)c3)nn2)[C@H]1O)C1(O)CCCCC1` (stereo partly drawn) [Example 2.39.222., 2-(((2S,3R,4S,5R,6R)-3,5-Dihydroxy-6-(hydroxymethyl)-4-(4-(3,4,5-trifluorophenyl)-1H-1,2,3-triazol-1-yl)tetrahydro-2H-pyran-2-yl)thio)-N-(2-fluoro-2-methylpropyl)-2-(1-hydroxycyclohexyl)-N-methylacetamide], for which the concentration for half-maximal inhibition (IC50) is 0.05 µM in experiment [1] (Table 5) and 0.12 µM at human Gal-1 (hGal-1).

Regarding `CN(CC(C)(C)F)C(=O)[C@H](S[C@@H]1O[C@H](CO)[C@H](O)[C@H](n2cc(-c3cc(F)c(F)c(F)c3)nn2)[C@H]1O)C1(O)CCCCC1` [Example 2.39.222R., (R)-2-(((2S,3R,4S,5R,6R)-3,5-Dihydroxy-6-(hydroxymethyl)-4-(4-(3,4,5-trifluorophenyl)-1H-1,2,3-triazol-1-yl)tetrahydro-2H-pyran-2-yl)thio)-N-(2-fluoro-2-methylpropyl)-2-(1-hydroxycyclohexyl)-N-methylacetamide], the results for the 50% inhibitory concentration (IC50) (in experiment [1] (Table 5); on human Gal-1 (hGal-1)) were 10.2 µM and 38.1 µM, respectively.

Regarding `CN(CC(C)(C)F)C(=O)[C@@H](S[C@@H]1O[C@H](CO)[C@H](O)[C@H](n2cc(-c3cc(F)c(F)c(F)c3)nn2)[C@H]1O)C1(O)CCCCC1` [Example 2.39.222S., (S)-2-(((2S,3R,4S,5R,6R)-3,5-Dihydroxy-6-(hydroxymethyl)-4-(4-(3,4,5-trifluorophenyl)-1H-1,2,3-triazol-1-yl)tetrahydro-2H-pyran-2-yl)thio)-N-(2-fluoro-2-methylpropyl)-2-(1-hydroxycyclohexyl)-N-methylacetamide], the IC50 in experiment [1] (Table 5) was 0.02 µM; at human Gal-1 (hGal-1), 0.09 µM.

In the case of `CN1CCC(O)(C(S[C@@H]2O[C@H](CO)[C@H](O)[C@H](n3cc(-c4cc(F)c(F)c(F)c4)nn3)[C@H]2O)C(=O)N(C)Cc2ccccc2)CC1` (stereo partly drawn) [Example 2.40.207., N-Benzyl-2-(((2S,3R,4S,5R,6R)-3,5-dihydroxy-6-(hydroxymethyl)-4-(4-(3,4,5-trifluorophenyl)-1H-1,2,3-triazol-1-yl)tetrahydro-2H-pyran-2-yl)thio)-2-(4-hydroxy-1-methylpiperidin-4-yl)-N-methylacetamide], the IC50 in experiment [1] (Table 4) turned out to be 0.09 µM; on human Gal-1 (hGal-1), 0.59 µM.

As to `CN1CCC(O)(C(S[C@@H]2O[C@H](CO)[C@H](O)[C@H](n3cc(-c4cc(F)c(F)c(F)c4)nn3)[C@H]2O)C(=O)N2CCCCC2)CC1` (stereo partly drawn) [Example 2.40.208., 2-(((2S,3R,4S,5R,6R)-3,5-Dihydroxy-6-(hydroxymethyl)-4-(4-(3,4,5-trifluorophenyl)-1H-1,2,3-triazol-1-yl)tetrahydro-2H-pyran-2-yl)thio)-2-(4-hydroxy-1-methylpiperidin-4-yl)-1-(piperidin-1-yl)ethan-1-one], the 50% inhibitory concentration (IC50) in experiment [1] (Table 4) came out at 0.03 µM; on human Gal-1 (hGal-1) it was 0.05 µM.

As to `CN1CCC(O)(C(S[C@@H]2O[C@H](CO)[C@H](O)[C@H](n3cc(-c4cc(F)c(F)c(F)c4)nn3)[C@H]2O)C(=O)N2CCc3ccccc32)CC1` (stereo partly drawn) [Example 2.40.209., 2-(((2S,3R,4S,5R,6R)-3,5-Dihydroxy-6-(hydroxymethyl)-4-(4-(3,4,5-trifluorophenyl)-1H-1,2,3-triazol-1-yl)tetrahydro-2H-pyran-2-yl)thio)-2-(4-hydroxy-1-methylpiperidin-4-yl)-1-(indolin-1-yl)ethan-1-one], the values for the half-maximal inhibitory concentration (IC50) (in experiment [1] (Table 4); at human Gal-1 (hGal-1)) were 0.12 µM and 0.23 µM, respectively.

For the compound `CC(C)CN(C)C(=O)C(S[C@@H]1O[C@H](CO)[C@H](O)[C@H](n2cc(-c3cc(F)c(F)c(F)c3)nn2)[C@H]1O)C1(O)CCOCC1` (stereo partly drawn) [Example 2.41.200., 2-(((2S,3R,4S,5R,6R)-3,5-Dihydroxy-6-(hydroxymethyl)-4-(4-(3,4,5-trifluorophenyl)-1H-1,2,3-triazol-1-yl)tetrahydro-2H-pyran-2-yl)thio)-2-(4-hydroxytetrahydro-2H-pyran-4-yl)-N-isobutyl-N-methylacetamide], the IC50 in experiment [1] (Table 2) was found to be 0.06 µM; at human Gal-1 (hGal-1), 0.26 µM.

Regarding `CC(C)CN(C)C(=O)[C@H](S[C@@H]1O[C@H](CO)[C@H](O)[C@H](n2cc(-c3cc(F)c(F)c(F)c3)nn2)[C@H]1O)C1(O)CCOCC1` [Example 2.41.200R., (R)-2-(((2S,3R,4S,5R,6R)-3,5-Dihydroxy-6-(hydroxymethyl)-4-(4-(3,4,5-trifluorophenyl)-1H-1,2,3-triazol-1-yl)tetrahydro-2H-pyran-2-yl)thio)-2-(4-hydroxytetrahydro-2H-pyran-4-yl)-N-isobutyl-N-methylacetamide], the half-maximal inhibitory concentration (IC50) in experiment [1] (Table 2) came to 4.01 µM; on human Gal-1 (hGal-1), 10.9 µM.

As for `CC(C)CN(C)C(=O)[C@@H](S[C@@H]1O[C@H](CO)[C@H](O)[C@H](n2cc(-c3cc(F)c(F)c(F)c3)nn2)[C@H]1O)C1(O)CCOCC1` [Example 2.41.200S., (S)-2-(((2S,3R,4S,5R,6R)-3,5-Dihydroxy-6-(hydroxymethyl)-4-(4-(3,4,5-trifluorophenyl)-1H-1,2,3-triazol-1-yl)tetrahydro-2H-pyran-2-yl)thio)-2-(4-hydroxytetrahydro-2H-pyran-4-yl)-N-isobutyl-N-methylacetamide], the IC50 came out at 0.05 µM in experiment [1] (Table 2) and 0.11 µM on human Gal-1 (hGal-1).

For the compound `CN(C)C(=O)C(S[C@@H]1O[C@H](CO)[C@H](O)[C@H](n2cc(-c3cc(F)c(F)c(F)c3)nn2)[C@H]1O)C1(O)CCOCC1` (stereo partly drawn) [Example 2.41.201., 2-(((2S,3R,4S,5R,6R)-3,5-Dihydroxy-6-(hydroxymethyl)-4-(4-(3,4,5-trifluorophenyl)-1H-1,2,3-triazol-1-yl)tetrahydro-2H-pyran-2-yl)thio)-2-(4-hydroxytetrahydro-2H-pyran-4-yl)-N,N-dimethylacetamide], the IC50 in experiment [1] (Table 4) turned out to be 0.18 µM; on human Gal-1 (hGal-1), 1.8 µM.

For `CN(C)C(=O)[C@H](S[C@@H]1O[C@H](CO)[C@H](O)[C@H](n2cc(-c3cc(F)c(F)c(F)c3)nn2)[C@H]1O)C1(O)CCOCC1` [Example 2.41.201R., (R)-2-(((2S,3R,4S,5R,6R)-3,5-Dihydroxy-6-(hydroxymethyl)-4-(4-(3,4,5-trifluorophenyl)-1H-1,2,3-triazol-1-yl)tetrahydro-2H-pyran-2-yl)thio)-2-(4-hydroxytetrahydro-2H-pyran-4-yl)-N,N-dimethylacetamide], the half-inhibitory concentration (IC50) in experiment [1] (Table 4) is 4.1 µM; on human Gal-1 (hGal-1), > 100 µM.

`CN(C)C(=O)[C@@H](S[C@@H]1O[C@H](CO)[C@H](O)[C@H](n2cc(-c3cc(F)c(F)c(F)c3)nn2)[C@H]1O)C1(O)CCOCC1` [Example 2.41.201S., (S)-2-(((2S,3R,4S,5R,6R)-3,5-Dihydroxy-6-(hydroxymethyl)-4-(4-(3,4,5-trifluorophenyl)-1H-1,2,3-triazol-1-yl)tetrahydro-2H-pyran-2-yl)thio)-2-(4-hydroxytetrahydro-2H-pyran-4-yl)-N,N-dimethylacetamide]: the values for the IC50 (in experiment [1] (Table 4); on human Gal-1 (hGal-1)) were 0.06 µM and 0.21 µM, respectively.

As for `CCN(CC)C(=O)C(S[C@@H]1O[C@H](CO)[C@H](O)[C@H](n2cc(-c3cc(F)c(F)c(F)c3)nn2)[C@H]1O)C1(O)CCOCC1` (stereo partly drawn) [Example 2.41.202., 2-(((2S,3R,4S,5R,6R)-3,5-Dihydroxy-6-(hydroxymethyl)-4-(4-(3,4,5-trifluorophenyl)-1H-1,2,3-triazol-1-yl)tetrahydro-2H-pyran-2-yl)thio)-N,N-diethyl-2-(4-hydroxytetrahydro-2H-pyran-4-yl)acetamide], the values for the half-maximal inhibitory concentration (IC50) (in experiment [1] (Table 4); on human Gal-1 (hGal-1)) were 0.05 µM and 0.11 µM, respectively.

Regarding `CCN(C)C(=O)C(S[C@@H]1O[C@H](CO)[C@H](O)[C@H](n2cc(-c3cc(F)c(F)c(F)c3)nn2)[C@H]1O)C1(O)CCOCC1` (stereo partly drawn) [Example 2.41.203., 2-(((2S,3R,4S,5R,6R)-3,5-Dihydroxy-6-(hydroxymethyl)-4-(4-(3,4,5-trifluorophenyl)-1H-1,2,3-triazol-1-yl)tetrahydro-2H-pyran-2-yl)thio)-N-ethyl-2-(4-hydroxytetrahydro-2H-pyran-4-yl)-N-methylacetamide], the 50% inhibitory concentration (IC50) in experiment [1] (Table 5) was 0.09 µM; at human Gal-1 (hGal-1), 0.42 µM.
